Molecular target: bovine serum albumin (Bos taurus, UniProt P02769)
Assay: Dialysis module, HF field effect in the frequency range 1 to 170 MHz on separation of phenylacetic acid (Embodiment 2)
Assay type: in vitro ADME
Conditions: BSA 60 mg/ml, toxin 1 mmol/l
Experimental: A dialysis module was set up for this purpose in that conventional hemofiltration capillaries were cast as loops using silicone into a syringe receiving neck. An aqueous albumin solution was introduced into the respective module in the presence of the uremic toxins phenylacetic acid, p-hydroxyhippuric acid and indoxyl sulfate. This solution was filtered with the dialysis module using a syringe pump for 10 min. […] The electromagnetic field is incremented by means of a high-frequency voltage source over a period of 10 minutes from […] in steps of 1 MHz. […] The effect of the HF field on the bond between the proteins and the uremic toxins was able to be evaluated by a comparison of the uremic toxin concentration in the resulting filtrates.
The HF field was varied in subbands of 10 MHz in the frequency range 1-170 MHz and was compared with a control experiment without an HF field.
The quantitative determination of the phenylacetic acid was performed using HPLC.
The results of the experiments are collected in FIG. 9. […] The effect was particularly pronounced at 54.6% in the subband from 110 to 120 MHz.

Sequence of bovine serum albumin (P02769 25-607): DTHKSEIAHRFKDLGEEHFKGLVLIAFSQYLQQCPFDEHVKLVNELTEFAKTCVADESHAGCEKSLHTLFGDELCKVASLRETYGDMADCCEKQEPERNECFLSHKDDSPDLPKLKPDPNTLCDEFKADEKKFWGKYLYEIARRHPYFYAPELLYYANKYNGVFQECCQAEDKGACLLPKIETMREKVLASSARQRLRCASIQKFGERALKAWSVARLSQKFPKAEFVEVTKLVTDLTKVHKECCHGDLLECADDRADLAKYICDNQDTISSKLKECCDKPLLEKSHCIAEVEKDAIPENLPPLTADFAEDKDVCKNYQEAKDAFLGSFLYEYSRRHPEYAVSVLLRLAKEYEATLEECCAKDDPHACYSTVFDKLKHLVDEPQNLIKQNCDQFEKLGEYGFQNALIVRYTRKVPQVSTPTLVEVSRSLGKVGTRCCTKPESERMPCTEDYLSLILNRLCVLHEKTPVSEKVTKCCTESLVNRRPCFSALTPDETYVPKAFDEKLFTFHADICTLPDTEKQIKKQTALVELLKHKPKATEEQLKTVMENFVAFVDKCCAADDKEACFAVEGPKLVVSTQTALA

For O=C(O)Cc1ccccc1 [phenylacetic acid], the “increase of separation rate under the influence of the HF field” value (HF field 1-170 MHz in subbands of 10 MHz vs control without HF field) was “at least 45.3%” and the “increase of separation rate under the influence of the HF field” value (subband from 110 to 120 MHz vs control without HF field) was 54.6%.

— patent US10525187B2, “Apparatus for removing protein-bound toxins from blood plasma” (Fresenius Medical Care Deutschland GmbH, priority 2012, dated 2020)
